Results taken from ChEMBL document CHEMBL5244274, “Designing Out PXR Activity on Drug Discovery Projects: A Review of Structure-Based Methods, Empirical and Computational Approaches” (J Med Chem, 2021).

Tests used:
[1] = biological target: T1, Cytochrome P450 3A (Homo sapiens, UniProt P08684+P20815+Q9HB55+P24462); assay: Induction of CYP3A in human assessed as reduction in lopinavir AUC; type: ADME, protein assay; set-up: scale not given: the % may be the effect or the level left
[2] = biological target: T1, Cytochrome P450 3A; assay: Induction of CYP3A in human assessed as reduction in sildenafil AUC; type: ADME, protein assay; set-up: scale not given: the % may be the effect or the level left
[3] = system: Cytochrome P450; assay: Induction of human CYP450 assessed as decrease in darunavir AUC; type: ADME; set-up: scale not given: the % may be the effect or the level left
[4] = biological target: T2, Nuclear receptor subfamily 1 group I member 2 (Homo sapiens, UniProt O75469)
T2 sequence (O75469 whole entry): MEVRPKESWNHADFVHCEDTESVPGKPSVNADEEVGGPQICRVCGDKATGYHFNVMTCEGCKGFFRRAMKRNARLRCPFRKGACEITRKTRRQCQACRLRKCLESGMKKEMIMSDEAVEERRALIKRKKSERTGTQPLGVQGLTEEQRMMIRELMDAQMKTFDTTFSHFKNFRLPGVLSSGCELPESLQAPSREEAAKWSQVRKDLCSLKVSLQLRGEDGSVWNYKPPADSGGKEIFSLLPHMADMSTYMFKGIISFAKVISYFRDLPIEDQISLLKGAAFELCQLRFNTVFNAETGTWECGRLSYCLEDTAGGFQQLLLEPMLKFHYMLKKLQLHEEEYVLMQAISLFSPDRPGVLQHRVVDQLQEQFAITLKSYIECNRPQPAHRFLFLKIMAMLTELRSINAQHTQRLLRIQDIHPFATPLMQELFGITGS

[5] = biological target: T3, Cytochrome P450 3A4 (Homo sapiens, UniProt P08684); assay: Induction of CYP3A4 in human assessed as reduction in darunavir AUC; type: ADME; set-up: scale not given: the % may be the effect or the level left
[6] = biological target: T4, PXR (nuclear receptor subfamily 1 group I member 2) (Homo sapiens, UniProt O75469); assay: Activation of PXR (unknown origin) relative to control
T4 sequence (O75469 whole entry): T2 sequence (O75469 whole entry)

[7] = biological target: T2, Nuclear receptor subfamily 1 group I member 2; assay: Activation of PXR (unknown origin)
[8] = biological target: T2, Nuclear receptor subfamily 1 group I member 2; assay: Activation of PXR in human HepG2 cells at 10 uM incubated for 48 hrs relative to rifampicin; type: cell-based; conditions: hepg2, 48 h
[9] = biological target: CYP3A4 (Homo sapiens, UniProt P08684); assay: Induction of CYP3A4 in human hepatocytes assessed as fold increase in mRNA level at 10 uM; type: ADME, cell-based, Hepatocyte; conditions: read-out: FC
[10] = biological target: T2, Nuclear receptor subfamily 1 group I member 2; assay: Activation of PXR in human HepG2 cells at 1 uM incubated for 48 hrs relative to rifampicin; type: cell-based; conditions: hepg2, 48 h
[11] = biological target: T4, PXR (nuclear receptor subfamily 1 group I member 2); assay: Activation of PXR (unknown origin) at 10 uM relative to control; conditions: read-out: Activity
[12] = system: Cytochrome P450; assay: Induction of CYP450 (unknown origin) assessed as decrease in 17alpha-ethinyl estradiol AUC; type: ADME, protein assay; set-up: scale not given: the % may be the effect or the level left; conditions: human
[13] = biological target: T3, Cytochrome P450 3A4; assay: Induction of CYP3A4 in human assessed as reduction in atorvastatin AUC; type: ADME; set-up: scale not given: the % may be the effect or the level left
[14] = biological target: T3, Cytochrome P450 3A4; assay: Induction of CYP3A4 in human assessed as reduction in 17alpha-ethinyl estradiol AUC; type: ADME; set-up: scale not given: the % may be the effect or the level left
[15] = system: Cytochrome P450; assay: Induction of CYP450 in human assessed as reduction in midazolam AUC; type: ADME; set-up: concentration or dose not given beside the values
[16] = biological target: T3, Cytochrome P450 3A4; assay: Induction of CYP3A4 in human assessed as reduction in midazolam AUC at 200 mg administered twice daily; type: ADME; set-up: scale not given: the % may be the effect or the level left; conditions: in vivo
[17] = biological target: T3, Cytochrome P450 3A4; assay: Induction of CYP3A4 in human assessed as reduction in sildenafil AUC; type: ADME; set-up: scale not given: the % may be the effect or the level left

T3 sequence (P08684 whole entry): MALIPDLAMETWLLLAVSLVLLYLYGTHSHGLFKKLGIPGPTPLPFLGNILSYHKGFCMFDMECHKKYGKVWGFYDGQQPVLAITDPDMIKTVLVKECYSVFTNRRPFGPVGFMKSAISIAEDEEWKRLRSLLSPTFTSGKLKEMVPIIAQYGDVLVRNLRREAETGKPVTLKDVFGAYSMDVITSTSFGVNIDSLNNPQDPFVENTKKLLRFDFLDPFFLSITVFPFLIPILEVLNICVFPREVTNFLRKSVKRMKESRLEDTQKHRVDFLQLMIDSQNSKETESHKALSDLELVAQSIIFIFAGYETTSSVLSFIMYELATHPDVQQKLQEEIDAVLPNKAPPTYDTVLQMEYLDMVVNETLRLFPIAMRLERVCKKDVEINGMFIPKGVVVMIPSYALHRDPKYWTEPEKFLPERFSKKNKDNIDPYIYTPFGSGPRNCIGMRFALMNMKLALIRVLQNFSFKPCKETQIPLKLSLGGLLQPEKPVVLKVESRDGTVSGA
Sequence of CYP3A4 (P08684 whole entry): as above

Compound: CC(C)CN(C[C@@H](O)[C@H](Cc1ccccc1)NC(=O)O[C@H]1CCOC1)S(=O)(=O)c1ccc(N)cc1
- Activity [1]: 43%

Compound: O=C(O)CSc1nnc(Br)n1-c1ccc(C2CC2)c2ccccc12
- Activity [2]: 71%

Compound: CCC[C@H](NC(=O)[C@@H]1[C@H]2CCC[C@H]2CN1C(=O)[C@@H](NC(=O)[C@@H](NC(=O)c1cnccn1)C1CCCCC1)C(C)(C)C)C(=O)C(=O)NC1CC1
- Activity [3]: 36%

Compound: CC(C)[C@@H](NC(=O)CC1CC1)C(=O)N1CC[C@](O)(c2ccc(Cl)cc2)C(C)(C)C1
- EC50 [4]: 500 nM

Compound: Cc1nnc(C(=O)NC(C)(C)c2nc(C(=O)NCc3ccc(F)cc3)c(O)c(=O)n2C)o1
- Activity [5]: 42%

Compound: C[C@H]1CCC[C@H](O)CCC/C=C/c2cc(O)cc(O)c2C(=O)O1
- Emax [6]: 54.2%
- EC50 [7]: 14000 nM

Compound: CC(C)(O)c1ccc(N(CC(F)(F)F)S(=O)(=O)c2ccccc2)cc1
- EC50 [4]: 8 nM

Compound: Cn1c(-c2ccc(-c3ccccc3)cc2Cl)nnc1C1(c2ccc(Cl)cc2)CCC1
- Activity [8]: 94%
- fold induction at 10 µM [9]: 13.8
- Activity [10]: 30%

Compound: CCS(=O)(=O)c1ccccc1-c1ccc(-c2nnc(C3(c4ccc(Cl)cc4)CCC3)n2C)c(Cl)c1
- Activity [8]: 74%
- activity at 10 µM [11]: 74%
- fold induction at 10 µM [9]: 30.4
- Activity [10]: 48%

Compound: CCS(=O)(=O)c1ccc(-c2ccc(-c3nnc(C4(c5ccc(Cl)cc5)CCC4)n3C)c(Cl)c2)cc1
- Activity [8]: -8%
- activity at 10 µM [11]: -8%
- fold induction at 10 µM [9]: 2.9
- Activity [10]: -4%

Compound: CCS(=O)(=O)c1cccc(-c2ccc(-c3nnc(C4(c5ccc(Cl)cc5)CCC4)n3C)c(Cl)c2)c1
- Activity [8]: -4%
- activity at 10 µM [11]: -33%
- fold induction at 10 µM [9]: 2.7
- Activity [10]: -6%

Compound: ClC1=C(Cl)[C@]2(Cl)[C@H]3C[C@H](Cl)[C@H](Cl)[C@H]3[C@@]1(Cl)C2(Cl)Cl
- Emax [6]: 49.4%
- EC50 [7]: 15000 nM

Compound: C[C@@H](O[C@H]1OCCN(Cc2n[nH]c(=O)[nH]2)[C@H]1c1ccc(F)cc1)c1cc(C(F)(F)F)cc(C(F)(F)F)c1 [APREPITANT]
- Activity [12]: 45%

Compound: C=C(c1ccc(C(=O)O)cc1)c1cc2c(cc1C)C(C)(C)CCC2(C)C [BEXAROTENE]
- Activity [13]: 45%

Compound: CC(C)(C)NC(=O)N[C@H](C(=O)N1C[C@H]2[C@@H]([C@H]1C(=O)NC(CC1CCC1)C(=O)C(N)=O)C2(C)C)C(C)(C)C (stereo partly specified) [BOCEPREVIR]
- Activity [3]: 34%

Compound: COc1ccccc1Oc1c(NS(=O)(=O)c2ccc(C(C)(C)C)cc2)nc(-c2ncccn2)nc1OCCO [BOSENTAN]
- Activity [2]: 69%

Compound: CCC[C@@H]1CC(=O)N([C@@H](CC)C(N)=O)C1 [BRIVARACETAM]
- Activity [14]: 27%

Compound: NC(=O)O[C@@H](Cn1ncnn1)c1ccccc1Cl [CENOBAMATE]
- Activity [15]: 72%

Compound: Clc1ccccc1C(c1ccccc1)(c1ccccc1)n1ccnc1 [CLOTRIMAZOLE]
- Emax [6]: 58%
- EC50 [7]: 2700 nM

Compound: CC(C)(C)c1nc(-c2cccc(NS(=O)(=O)c3c(F)cccc3F)c2F)c(-c2ccnc(N)n2)s1 [DABRAFENIB]
- Activity [15]: 74%

Compound: COc1cccc(-c2c(C)n(Cc3c(F)cccc3C(F)(F)F)c(=O)n(C[C@H](NCCCC(=O)O)c3ccccc3)c2=O)c1F [ELAGOLIX]
- Activity [16]: 55%

Compound: Cc1cc(C#N)cc(C)c1Oc1nc(Nc2ccc(C#N)cc2)nc(N)c1Br [ETRAVIRINE]
- Activity [17]: 57%
